Assay results taken from ChEMBL document CHEMBL5727231, “Farnesoid X receptor agonists and uses thereof” (2019).

The compounds below were run against T1, Bile acid receptor (Homo sapiens, UniProt Q96RI1) (assay: In Vitro FXR Assay (TK): SeedingCV-1 cells were seeded at a density of 2,000,000 cells in a T175 flask with DMEM+10% charcoal double-stripped FBS and incubated at 37° C. in 5% CO2 for 18 h (O/N).TransfectionAfter 18 h of incubation, the medium in the T175 flask was changed with fresh DMEM+10% charcoal super-stripped serum. In a polypropylene tube, 2500 μL OptiMEM (Life Technologies, Cat #31985-062) was combined with expression plasmids for hFXR, hRXR, TK-ECRE-luc and pCMX-YFP. The tube was then briefly vortexed and incubated at room temperature for 5 minutes. Transfection reagent (X-tremeGENE HP from Roche, Cat #06 366 236 001) was added to the OptiMEM/plasmid mixture vortexed and incubated at room temperature for 20 minutes. Following incubation, the transfection reagent/DNA mixture complex was added to cells in the T175 flask and the cells were incubated at 37° C. in 5% CO2 for 18 h (O/N).Test CompoundsCompounds were serially diluted in DMSO and added to transfected CV-1 cells. The cells were then incubated for 18 hrs. The next day cells were lysed and examined for luminescence.).
T1 sequence (Q96RI1 whole entry): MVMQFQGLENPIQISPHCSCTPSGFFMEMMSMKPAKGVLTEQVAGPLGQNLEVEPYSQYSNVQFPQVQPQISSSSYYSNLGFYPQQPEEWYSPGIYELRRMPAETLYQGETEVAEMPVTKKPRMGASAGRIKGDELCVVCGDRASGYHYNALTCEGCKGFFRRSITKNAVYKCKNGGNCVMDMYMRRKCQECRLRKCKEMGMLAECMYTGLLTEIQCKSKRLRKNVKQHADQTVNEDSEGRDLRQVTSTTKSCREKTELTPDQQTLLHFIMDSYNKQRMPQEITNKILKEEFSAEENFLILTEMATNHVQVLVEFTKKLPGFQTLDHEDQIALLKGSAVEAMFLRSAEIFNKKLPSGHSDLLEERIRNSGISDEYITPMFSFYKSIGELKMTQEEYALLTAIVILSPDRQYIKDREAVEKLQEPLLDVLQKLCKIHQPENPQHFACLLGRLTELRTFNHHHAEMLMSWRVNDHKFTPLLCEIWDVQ

With `COC(=O)c1ccc2c(N(C[C@H]3CC[C@H](c4ccc(C)cc4)CC3)C(=O)CC(C)(C)C)nccc2c1` as the compound, how does the EC50 read?
Its EC50 is less than 1000 nM.

How did the EC50 turn out when `COC(=O)c1ccc2c(N(C[C@H]3CC[C@H](c4cccc(OC)c4)CC3)C(=O)CC(C)(C)C)nccc2c1` was run?
Its EC50 is less than 1000 nM.

How did the EC50 turn out when `COC(=O)c1ccc2c(N(C[C@H]3CC[C@H](c4ccc(OC)c(C)c4)CC3)C(=O)C3CCCCC3)nccc2c1` was run?
Its EC50 is less than 1000 nM.
